Reference: ChEMBL document CHEMBL3621109, “Probing Mechanisms of CYP3A Time-Dependent Inhibition Using a Truncated Model System” (ACS Med Chem Lett, 2015)

How the values were obtained:
[1] = Inhibition of CYP3A (unknown origin) using testosterone as substrate; format: ADME, Homo sapiens
[2] = Inhibition of CYP3A (unknown origin) using midazolam as substrate; format: ADME, Homo sapiens

| Structure (SMILES) | IC50 [1] | IC50 [2] |
| --- | --- | --- |
| Cn1ncc(NC(=O)c2ccccc2)c1N1CC[C@H](N)CC(F)(F)C1 | 4.3 µM | 5 µM |
| Cn1ncc(NC(=O)OCc2ccccc2)c1N1CC[C@H](N)CC(F)(F)C1 | 2.5 µM | 7.7 µM |
| Cn1ncc(NC(=O)c2ccccc2)c1N1CCC(O)CC(F)(F)C1 (racemic) | – | > 10 µM |
| Cn1ncc(NC(=O)c2ccccc2)c1N1CCCCC(F)(F)C1 | 1.7 µM | 0.84 µM |
